Assays:
[1] = system: insulin gene, PDX1, IL1b, glucokinase (GCK) and Glut2 (slc2a2); assay: Gene expression in islet beta cells under inflammatory conditions; type: cell-based, rat
[2] = system: rat primary hepatocytes; assay: Reactive oxygen species in rat primary hepatocytes; type: cell-based; details: glucose, palmitate and inflammatory cytokines, FIG. 8
Text: Reactive oxygen species (ROS) are generated as metabolic byproducts, particularly as a byproduct of oxidative phosphorylation. Under normal conditions, the levels of ROS generated are low and tightly controlled, and can function as signaling intermediates.

[3] = system: JNK; assay: JNK phosphorylation under inflammatory conditions in adipocytes; type: cell-based; details: in response to inflammatory cytokine, FIG. 1
[4] = system: C2C12 myotubes; assay: NO release from muscle cells; type: cell-based
Text: (§1) Oxidative stress mediated by both ROS and RNS (NO) is known to impair mitochondrial function and induced insulin resistance in skeletal muscle (FIG. 17). Furthermore, it is also known that metabolic overload and inflammatory signal drives oxidative stress in skeletal muscles.

[5] = system: IkB; assay: IkB level in skeletal muscle cells; type: cell-based; details: skeletal muscle cells under inflammatory conditions (Infl), FIG. 14
Text: (§2) Taken together, TAK-1 inhibition could lead to decreased JNK and NFkB signaling under metabolic overload and inflammation.

[6] = system: 3T3 L1 cells; assay: Insulin sensitivity in adipocytes (Western blot p-Akt Thr-308 / total Akt); type: cell-based; details: glucose and palmitate 48 hours, then 10 and 100 nM insulin 15 min, FIG. 2
Description: This was ascertained by treating 3T3 L1 cells with glucose and palmitate (GP) for 48 hours in the presence and absence of TAK-1 inhibitor. Cells were then stimulated with 10 and 100 nM insulin (I) for 15 min, following which they were taken up for Western blot analysis for p-Akt ([…]) and total Akt.

[7] = system: 3T3F442A cells; assay: Secreted adiponectin in adipocytes; type: cell-based; details: inflammation (inf) plus metabolic overload (pal), FIG. 4
Text: Adiponectin is secreted by insulin sensitive mature adipocytes and positively modulates glucose and lipid metabolism in non adipose tissues such as liver, muscle etc. Increased adiponectin secretion is desirable and is correlated with whole body insulin sensitivity. Inflammation (inf) in the presence of metabolic overload (pal) caused a decrease in adiponectin secretion in 3T3F442A cells.

[8] = system: muscle cells; assay: Mitochondrial activity of muscle cells (reduction of MTT); type: cell-based; details: inflammation and oxidative stress conditions, FIG. 18
[9] = system: skeletal muscles; assay: ROS levels in skeletal muscle cells; type: cell-based; details: different disease conditions, FIG. 17 C
Text: as §1

[10] = system: rat islets; assay: Glucose stimulated insulin secretion (GSIS) under inflammatory conditions; type: cell-based; details: inflammatory condition (Infl), FIG. 25
[11] = system: 3T3F442A pre adipocytes; assay: Adipogenesis (TG levels) under inflammatory cytokines; type: cell-based; details: differentiation with inflammatory cytokines, FIG. 3
Description: Experiments were performed in which inflammatory cytokines were added to 3T3F442A pre adipocytes (UD) and TG levels were estimated as a measure of adipogenesis. Differentiation was carried out in the presence and absence of TAK-1 inhibitor.

[12] = system: JNK; assay: JNK activation in skeletal muscle cells; type: cell-based
Text: as §2

[13] = system: skeletal muscle cells; assay: Mitochondrial biogenesis in skeletal muscle cells (mtND1, mitochondrial DNA copy number, MEF2C); type: cell-based; details: FIG. 18
[14] = metabolic overload or inflammation

## COc1cc(O)c2c(c1)/C=C/C[C@H](O)[C@H](O)C(=O)/C=C\C[C@H](C)OC2=O [(5Z)-7-Oxozeaenol]
[1]; rat islet, FIG. 27
  inflammation induced IL1b expression: reduce inflammation induced IL1b expression
[1]; rat islets, under inflammation, FIG. 26
  insulin gene and PDX1 expression: up-regulate
[2]
  intracellular ROS levels: reduced ROS levels
[3]
  activation of JNK: decreased activation of JNK
[4]; C2C12 myotubes, FIG. 17 A
  inflammation induced NO release: reduced inflammation induced NO release from C2C12 myotubes in a dose dependent manner
[4]; skeletal muscles, metabolic overload (high glucose and palmitate) and inflammatory conditions, FIG. 17 B
  NO release: reduced NO release
[5]
  IkB level (NFkB pathway): increasing IkB level
[6]
  insulin sensitivity (p-Akt Thr-308 / total Akt): restored insulin sensitivity
[7]
  decrease in adiponectin secretion: partially inhibited
[8]
  mitochondrial activity (reduction of MTT): increase mitochondrial activity
[9]
  ROS levels: reduced
[10]
  glucose stimulated insulin secretion (GSIS): restored GSIS
[11]
  TG levels as a measure of adipogenesis: partially restored
[12]; in response to inflammatory cytokines, FIG. 13
  activation of JNK: decreased activation of JNK
[12]; in response to metabolic stress (palmitate overload)
  activation of JNK: reduce activation of JNK
[13]; [14]
  mitochondrial DNA copy number: increased mitochondrial DNA copy number
  muscle enriched transcription factor (MEF2C): increased
[13]; skeletal muscle cells
  expression of mitochondrial genes such as mtND1: up-regulate
